# Reference: patent EP0289262A2, “Omega-quaternary ammonium alkyl esters and thioesters of acidic nonsteroidal antiinflammatory drugs” (priority 1987, dated 1988)
# Several values for one entry are separate records, joined by “and”; a condition that tells them apart may be missing. Equal entries are not always repeated.
# Tests used:
# Intestinal Tract of Rats = test: Test for ability to cause gastro-intestinal erosion in rats; format: in vivo, Male Lai: COX (SD) rats
# Method: Male Lai: COX (SD) rats weighing 200-250 gm were acclimated for one week under standard laboratory conditions. Each animal was individually indentified and body weights were determined on the first day of the test and again at autopsy. The test materials, suspended in aqueous carboxymethyl cellulose vehicle, were administered orally once daily in a volume of 1.0ml per 100g body weight for four consecutive days. Food was withdrawn from the animals following the last dose and the animals were sacrificed 24 hours later. At necropsy, the stomach and intestines were removed and observed for lesions. […] The incidence of lesions for each dose level tested is reported.
# [1] = system: Adjuvant-Induced Arthritis in the Rat; test: Rat adjuvant-induced arthritis assay; format: in vivo, Female Crl:CD, br rats; conditions: oral
# Method: Female Crl:CD, br rats weighting 160-180 gm were randomly distributed to treatment groups of 12 animals, and were given food and water ad libitum. Test materials were prepared fresh weekly as suspensions in aqueous carboxymethyl cellulose. Animals were orally dosed with volumes of 1 ml twice per day Monday through Friday, and with 2 ml once per day on Saturdays and Sundays. At time 0, rats were injected intradermally in the proximal quarter of the tail with 0.1 ml of a mineral oil suspension of heat killed and dried Mycobacterium butyricum (Difco) at a concentration of 10 mg/ml. After sacrifice, the hind paws of each animal were removed and weighed.
# [2] = 21-day oral toxicity observation in rats; format: in vivo, male Hsd:(SD)BR rats; conditions: orally twice daily for 21 consecutive days, total daily dose 100 mg/Kg
# Method: Five male Hsd:(SD)BR rats weighing 205-215 g were acclimated for approximately one week prior to use under standard laboratory conditions. Naproxen thiocholine ester iodide, suspended in aqueous carboxymethylcellulose vehicle was administered orally twice daily in a volume of 1.0 ml per 200 g body weight for 21 consecutive days at a total daily dose of 100 mg/Kg.
# [3] = system: Intestinal Ulceration in Rats Induced by the Subcutaneous Administration of Indomethacin; test: Protective effect against intestinal ulceration induced by subcutaneous indomethacin; format: in vivo, Male Crl:D,br rats; conditions: indomethacin 4 mg/kg/day s.c. for four days, score 0-10, vehicle 5.8 ± 1.8
# Method: Male Crl:D,br rats weighing approximately 200 gm received indomethacin, 4 mg/kg, injected subcutaneously each day for four consecutive days to induce the formation of erosions and ulcers of the small intestine. Food was removed following the last dose of indomethacin and the rats were necropsied 18-24 hours later. Erosions of small intestine were scored as follows: 0 - no detectable lesions 2 - small ulcerattions (1-15) less than 1 mm 4 - small ulcerations plus 1-10 medium (2-3 mm) ulcerations 6 - predominantly medium ulceratiaons plus 2-5 severe (>4mm) ulcers without evidence of perforation 8 - many (>20) medium and severe ulcerations with evidence of perforation 10 - animals dying during assay as a consequence of intestinal perforation and septicemia.
# Agents to be tested for protective effects were administered orally in an aqueous vehicle, with one-half the daily dose being administered 4 hours prior to indomethacin injection and one half the daily dose being administered at the time of indomethacin injection.
# [4] = daily dose 25 mg/kg orally, four consecutive days, erosions graded 0-10, five rats
# [5] = daily dose 5 mg/kg orally, four consecutive days, erosions graded 0-10, five rats
# [6] = daily dose 200 mg/kg orally, four consecutive days, erosions graded 0-10, five rats
# [7] = daily dose 300 mg/kg orally, four consecutive days, erosions graded 0-10, five rats, 300 mg/kg
# [8] = daily dose 400 mg/kg orally, four consecutive days, erosions graded 0-10, five rats, 400 mg/kg
smiles,measurement,setting,value
"COc1ccc2c(c1)c(CC(=O)SCC[N+](C)(C)C)c(C)n2C(=O)c1ccc(Cl)cc1 [Indomethacin thiocholine ester iodide, indomethacin thiocholine ester iodide]",Mean Intestinal Ulcer Score ± 1Std. Dev.,Intestinal Tract of Rats; [4],0
same,Mean Intestinal Ulcer Score ± 1Std. Dev.,"Intestinal Tract of Rats; daily dose 100 mg/kg orally, four consecutive days, erosions graded 0-10, five rats",0
same,Percent Inhibition of Hind Paw Weight,[1]; daily dose 7.0 mg/kg,15%
same,Percent Inhibition of Hind Paw Weight,[1]; daily dose 14 mg/kg,59%
"COc1ccc2c(c1)c(CC(=O)O)c(C)n2C(=O)c1ccc(Cl)cc1 [Indomethacin, indomethacin, reference compound]",Mean Intestinal Ulcer Score ± 1Std. Dev.,Intestinal Tract of Rats; [5],7.2 ± 1.9
same,Percent Inhibition of Hind Paw Weight,[1]; daily dose 2.0 mg/kg,75%
"C[N+](C)(C)CCSC(=O)C1CCn2c(C(=O)c3ccccc3)ccc21 (centres unmarked) [Ketorolac thiocholine ester iodide, ketorolac thiocholine ester iodide]",Mean Intestinal Ulcer Score ± 1Std. Dev.,Intestinal Tract of Rats; [4],2.0 ± 2.0
same,Mean Intestinal Ulcer Score ± 1Std. Dev.,"Intestinal Tract of Rats; daily dose 50 mg/kg orally, four consecutive days, erosions graded 0-10, five rats",6.4 ± 0.9
same,Mean Intestinal Ulcer Score ± 1Std. Dev.,"Intestinal Tract of Rats; daily dose 75 mg/kg orally, four consecutive days, erosions graded 0-10, five rats",7.2 ± 1.1
same,Percent Inhibition of Hind Paw Weight,[1]; daily dose 1.0 mg/kg,10%
same,Percent Inhibition of Hind Paw Weight,"[1]; daily dose 5.0 mg/kg, 5 mg/kg",79% and 56%
"O=C(c1ccccc1)c1ccc2n1CCC2C(=O)O (centres unmarked) [Ketorolac, ketorolac, reference compound]",Mean Intestinal Ulcer Score ± 1Std. Dev.,Intestinal Tract of Rats; [5],1.9 ± 0.9
same,Mean Intestinal Ulcer Score ± 1Std. Dev.,"Intestinal Tract of Rats; rat, in vivo, po, 10 mg/kg",4.8 ± 1.7
same,Mean Intestinal Ulcer Score ± 1Std. Dev.,"Intestinal Tract of Rats; rat, in vivo, po, 20 mg/kg",7.4 ± 1.7
same,Percent Inhibition of Hind Paw Weight,[1]; daily dose 0.1 mg/kg,5%
same,Percent Inhibition of Hind Paw Weight,[1]; daily dose 0.5 mg/kg,14%
same,Percent Inhibition of Hind Paw Weight,[1]; daily dose 2.5 mg/kg,59%
"COc1ccc2cc([C@H](C)C(=O)SCC[N+](C)(C)C)ccc2c1 [Naproxen thiocholine ester chloride, naproxen thiocholine ester chloride]",Mean Intestinal Ulcer Score ± 1Std. Dev.,Intestinal Tract of Rats; [6],0.4 ± 0.9
same,Mean Intestinal Ulcer Score ± 1Std. Dev.,Intestinal Tract of Rats; [7],1.6 ± 0.9
same,Mean Intestinal Ulcer Score ± 1Std. Dev.,Intestinal Tract of Rats; [8],5.6 ± 2.2
"COc1ccc2cc([C@H](C)C(=O)SCC[N+](C)(C)C)ccc2c1 [Naproxen thiocholine ester iodide, NAPROXEN THIOCHOLINE ESTER IODIDE]",Mean Intestinal Ulcer Score ± 1Std. Dev.,"Intestinal Tract of Rats; daily dose 150 mg/kg orally, four consecutive days, erosions graded 0-10, five rats",0
same,Mean Intestinal Ulcer Score ± 1Std. Dev.,Intestinal Tract of Rats; [6],0.4 ± 0.9
same,Mean Intestinal Ulcer Score ± 1Std. Dev.,"Intestinal Tract of Rats; daily dose 250 mg/kg orally, four consecutive days, erosions graded 0-10, five rats",1.6 ± 1.7
same,Mean Intestinal Ulcer Score ± 1Std. Dev.,Intestinal Tract of Rats; [7],3.0 ± 1.7
same,Mean Intestinal Ulcer Score ± 1Std. Dev.,Intestinal Tract of Rats; [8],7.2 ± 1.1
same,Percent Inhibition of Hind Paw Weight,[1]; daily dose 7.0 mg/kg,40%
same,Percent Inhibition of Hind Paw Weight,[1]; daily dose 10 mg/kg,69%
same,Percent Inhibition of Hind Paw Weight,"[1]; daily dose 14 mg/kg, 14 mg/kg",40% and 53%
same,Percent Inhibition of Hind Paw Weight,"[1]; daily dose 28 mg/kg, 28 mg/kg",51% and 75%
same,gross signs of toxicity,[2],did not produce any gross signs of toxicity
same,Intestinal Erosion Score Mean ± S.D.,[3]; oral dose 5 mg/kg/day,4.0 ± 2.4
same,Intestinal Erosion Score Mean ± S.D.,[3]; oral dose 10 mg/kg/day,2.4 ± 0.9
same,Intestinal Erosion Score Mean ± S.D.,[3]; oral dose 20 mg/kg/day,1.8 ± 2.4
same,Intestinal Erosion Score Mean ± S.D.,[3]; oral dose 50 mg/kg/day,0.8 ± 1.1
"COc1ccc2cc([C@H](C)C(=O)O)ccc2c1 [Naproxen, 2-(6′-methoxy-2′-naphthyl)propionic acid, reference compound]",Mean Intestinal Ulcer Score ± 1Std. Dev.,"Intestinal Tract of Rats; daily dose 20 mg/kg orally, four consecutive days, erosions graded 0-10, five rats",1.6 ± 0.9
same,Mean Intestinal Ulcer Score ± 1Std. Dev.,Intestinal Tract of Rats; [4],3.2 ± 1.1
same,Mean Intestinal Ulcer Score ± 1Std. Dev.,"Intestinal Tract of Rats; daily dose 30 mg/kg orally, four consecutive days, erosions graded 0-10, five rats",6.4 ± 1.7
same,Mean Intestinal Ulcer Score ± 1Std. Dev.,"Intestinal Tract of Rats; daily dose 35 mg/kg orally, four consecutive days, erosions graded 0-10, five rats",7.6 ± 0.9
same,Percent Inhibition of Hind Paw Weight,[1]; daily dose 1.4 mg/kg,22%
same,Percent Inhibition of Hind Paw Weight,[1]; daily dose 3.5 mg/kg,70%
same,Percent Inhibition of Hind Paw Weight,[1]; daily dose 7.0 mg/kg,77%
